The text below walks through data of the supplement of paper PMC8967900.

Structures are written as SMILES.
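Further: ALL cell lines in 384-well plates, five doses spanning 10,000-fold, each plate scaled between vehicle and 100 µmol/L benzalkonium chloride controls, sDSS an adapted area-under-curve metric.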

For the first test, the system named is 380. Put plainly: selective drug sensitivity score (sDSS, relative to normal bone marrow) (sDSS (score)); higher = more potent and effective on the cell line relative to normal bone marrow cells. The following applies: 72 h.
Regarding `CNC(=O)c1ccc(C)c(-n2c(C)cc(OCc3ccc(F)cc3F)c(Br)c2=O)c1` (top concentration 1000 nM), the “selective drug sensitivity score” value was 0.
On the same count and under the same terms, then `CONC(=O)c1ccccc1Nc1cc(Nc2cc(C)nn2C(C)C)ncc1Cl` (top concentration 1000 nM), with 1.16; and `CCOc1ccn(-c2ccc(F)cc2)c(=O)c1C(=O)Nc1ccc(Oc2ccnc(N)c2Cl)c(F)c1` (top concentration 2500 nM), with 0.
Consider `CC[C@@H]1[C@H](F)C(=O)N[C@@H]1COc1nccc2cc(C(N)=O)c(OC)cc12` (top concentration 10000 nM), for which the “selective drug sensitivity score” value was -1.32.
The same measure, in the same setting: the value for `C[C@H]1C[C@@H](n2c(Nc3ccc(OC(F)(F)F)cc3)nc3cc(CCC(=O)O)ccc32)CC(C)(C)C1` (top concentration 10000 nM) was -0.14; that for `O=C(NCc1ccncc1)C12CC3CC(C1)CC(c1ccc(Cl)cc1)(C3)C2` (top concentration 50000 nM) was 0.38; that for `O=C(O)c1ccc(CN2CCC(CN[C@@H]3C[C@H]3c3ccccc3)CC2)cc1` (top concentration 100000 nM) was -0.62.
As to `COc1cc(N2CCN(C)CC2)ccc1Nc1nccc(-c2cn(C)c3cnccc23)n1` [AZ191] (top concentration 10000 nM), the “selective drug sensitivity score” value was -2.42.
Regarding `Cc1cc(Nc2nc(N[C@@H](C)c3ncc(F)cn3)ncc2Cl)[nH]n1` [AZD1480] (top concentration 1000 nM), the “selective drug sensitivity score” value is -0.58.
Take `COc1cc(CCc2cc(NC(=O)c3ccc(N4CC(C)NC(C)C4)cc3)n[nH]2)cc(OC)c1` (configuration not stated) [AZD4547] (top concentration 1000 nM): the “selective drug sensitivity score” value was -0.14.
Take `CN(C)C(=O)c1ccc(S(=O)(=O)c2ccc(NC(=O)[C@@](C)(O)C(F)(F)F)c(Cl)c2)cc1` [AZD7545] (top concentration 10000 nM): the “selective drug sensitivity score” value was -0.2.
`COc1cc(C)c(/C=C/C(C)=C/C=C/C(C)=C/C(=O)O)c(C)c1C` [Acitretin] (top concentration 10000 nM): the “selective drug sensitivity score” value was determined as 15.2.
The same measure, in the same setting: the value for `CCC1(c2ccc(N)cc2)CCC(=O)NC1=O` (configuration not stated) [Aminoglutethimide] (top concentration 10000 nM) was 0; that for `CNC(=O)c1ccc(N2C(=S)N(c3cnc(C#N)c(C(F)(F)F)c3)C(=O)C23CCC3)cc1F` [Apalutamide] (top concentration 10000 nM) was 0.
Still for that read-out and setting: then `N#CC1(c2ccc(NC(=O)c3cccnc3NCc3ccncc3)cc2)CCCC1` [Apatinib] (top concentration 10000 nM), with 0; and `Cc1nc2cccc(N)c2c(=O)n1C1CCC(=O)NC1=O` (configuration not stated) [Avadomide (CC122)] (top concentration 10000 nM), with 0.
Regarding `Nc1nc(Nc2ccc3c(c2)CC[C@@H](N2CCCC2)CC3)nn1-c1cc2c(nn1)-c1ccccc1CCC2` [BGB324] (top concentration 10000 nM), the “selective drug sensitivity score” value was -0.88.
Regarding `CC1(C)C(C(=O)Nc2ccc(S(=O)(=O)c3ccc(NC(=O)C4C(C)(C)C4(C)C)cc3)cc2)C1(C)C` [BRD7116] (top concentration 10000 nM), the “selective drug sensitivity score” value was -0.24.
On the same count and under the same terms, the value for `CCS(=O)(=O)N1CC(CC#N)(n2cc(-c3ncnc4[nH]ccc34)cn2)C1` [Baricitinib] (top concentration 2500 nM) was -1.94.

The next test has as its system ALL-PO. The test is described as above. The note with it: 72 h.
Regarding `CNC(=O)c1ccc(C)c(-n2c(C)cc(OCc3ccc(F)cc3F)c(Br)c2=O)c1` (top concentration 1000 nM), the “selective drug sensitivity score” value is 0.
Same read-out and setting: the value for `CONC(=O)c1ccccc1Nc1cc(Nc2cc(C)nn2C(C)C)ncc1Cl` (top concentration 1000 nM) was -0.14; that for `CCOc1ccn(-c2ccc(F)cc2)c(=O)c1C(=O)Nc1ccc(Oc2ccnc(N)c2Cl)c(F)c1` (top concentration 2500 nM) was 2.7; that for `CC[C@@H]1[C@H](F)C(=O)N[C@@H]1COc1nccc2cc(C(N)=O)c(OC)cc12` (top concentration 10000 nM) was 2.08.
Still for that read-out and setting: the value for `C[C@H]1C[C@@H](n2c(Nc3ccc(OC(F)(F)F)cc3)nc3cc(CCC(=O)O)ccc32)CC(C)(C)C1` (top concentration 10000 nM) was 2.86.
On the same count and under the same terms, the value for `O=C(NCc1ccncc1)C12CC3CC(C1)CC(c1ccc(Cl)cc1)(C3)C2` (top concentration 50000 nM) was 3.28.
As for `O=C(O)c1ccc(CN2CCC(CN[C@@H]3C[C@H]3c3ccccc3)CC2)cc1` (top concentration 100000 nM), the “selective drug sensitivity score” value is 2.08.
In the case of `COc1cc(N2CCN(C)CC2)ccc1Nc1nccc(-c2cn(C)c3cnccc23)n1` [AZ191] (top concentration 10000 nM), the “selective drug sensitivity score” value is 3.58.
For the molecule `Cc1cc(Nc2nc(N[C@@H](C)c3ncc(F)cn3)ncc2Cl)[nH]n1` [AZD1480] (top concentration 1000 nM), the “selective drug sensitivity score” value is 0.72.
Same read-out and setting: the value for `COc1cc(CCc2cc(NC(=O)c3ccc(N4CC(C)NC(C)C4)cc3)n[nH]2)cc(OC)c1` (configuration not stated) [AZD4547] (top concentration 1000 nM) was 0.46; that for `CN(C)C(=O)c1ccc(S(=O)(=O)c2ccc(NC(=O)[C@@](C)(O)C(F)(F)F)c(Cl)c2)cc1` [AZD7545] (top concentration 10000 nM) was 2.6; that for `COc1cc(C)c(/C=C/C(C)=C/C=C/C(C)=C/C(=O)O)c(C)c1C` [Acitretin] (top concentration 10000 nM) was -0.3.
With `CCC1(c2ccc(N)cc2)CCC(=O)NC1=O` (configuration not stated) [Aminoglutethimide] (top concentration 10000 nM), the “selective drug sensitivity score” value was found to be 0.
Still for that read-out and setting: the value for `CNC(=O)c1ccc(N2C(=S)N(c3cnc(C#N)c(C(F)(F)F)c3)C(=O)C23CCC3)cc1F` [Apalutamide] (top concentration 10000 nM) was 0.
The same measure, in the same setting: the value for `N#CC1(c2ccc(NC(=O)c3cccnc3NCc3ccncc3)cc2)CCCC1` [Apatinib] (top concentration 10000 nM) was 2.4; that for `Cc1nc2cccc(N)c2c(=O)n1C1CCC(=O)NC1=O` (configuration not stated) [Avadomide (CC122)] (top concentration 10000 nM) was 0.
As for `Nc1nc(Nc2ccc3c(c2)CC[C@@H](N2CCCC2)CC3)nn1-c1cc2c(nn1)-c1ccccc1CCC2` [BGB324] (top concentration 10000 nM), the “selective drug sensitivity score” value stood at 6.02.
For the molecule `CC1(C)C(C(=O)Nc2ccc(S(=O)(=O)c3ccc(NC(=O)C4C(C)(C)C4(C)C)cc3)cc2)C1(C)C` [BRD7116] (top concentration 10000 nM), the “selective drug sensitivity score” value is -0.24.
Consider `CCS(=O)(=O)N1CC(CC#N)(n2cc(-c3ncnc4[nH]ccc34)cn2)C1` [Baricitinib] (top concentration 2500 nM), for which the “selective drug sensitivity score” value was -1.94.

The next test relates to CCRF-CEM. Described as above. The following applies: 72 h.
As for `CNC(=O)c1ccc(C)c(-n2c(C)cc(OCc3ccc(F)cc3F)c(Br)c2=O)c1` (top concentration 1000 nM), the “selective drug sensitivity score” value is 0.
Still for that read-out and setting: the value for `CONC(=O)c1ccccc1Nc1cc(Nc2cc(C)nn2C(C)C)ncc1Cl` (top concentration 1000 nM) was -0.94.
Same read-out and setting: the value for `CCOc1ccn(-c2ccc(F)cc2)c(=O)c1C(=O)Nc1ccc(Oc2ccnc(N)c2Cl)c(F)c1` (top concentration 2500 nM) was 0.6.
Still for that read-out and setting: the value for `CC[C@@H]1[C@H](F)C(=O)N[C@@H]1COc1nccc2cc(C(N)=O)c(OC)cc12` (top concentration 10000 nM) was 1.58; that for `C[C@H]1C[C@@H](n2c(Nc3ccc(OC(F)(F)F)cc3)nc3cc(CCC(=O)O)ccc32)CC(C)(C)C1` (top concentration 10000 nM) was 1.56.
For the molecule `O=C(NCc1ccncc1)C12CC3CC(C1)CC(c1ccc(Cl)cc1)(C3)C2` (top concentration 50000 nM), the “selective drug sensitivity score” value came to 2.28.
As for `O=C(O)c1ccc(CN2CCC(CN[C@@H]3C[C@H]3c3ccccc3)CC2)cc1` (top concentration 100000 nM), the “selective drug sensitivity score” value is -0.02.
For the molecule `COc1cc(N2CCN(C)CC2)ccc1Nc1nccc(-c2cn(C)c3cnccc23)n1` [AZ191] (top concentration 10000 nM), the “selective drug sensitivity score” value was -1.42.
For the molecule `Cc1cc(Nc2nc(N[C@@H](C)c3ncc(F)cn3)ncc2Cl)[nH]n1` [AZD1480] (top concentration 1000 nM), the “selective drug sensitivity score” value is -3.98.
